According to ChEMBL document CHEMBL6153174, “Design and Synthesis of Novel Deazapurine DNMT 1 Inhibitors with In Vivo Efficacy in DLBCL” (J Med Chem, 2025):

Legend:
[1] = Antitumor activity against human TMD8 cells harbouring […] xenografted in mouse model assessed as tumor inhibition rate at 10 mg/kg, iv administered three times a week relative to control; type: functional; parameters: scale not given: the % may be the effect or the level left
[2] = test system: TMD8; experiment: Antiproliferative activity against human TMD8 cells assessed as inhibition of cell viability measured after 72 hrs by MTT assay; type: functional, cell-based; settings: TMD8, 72 h
[3] = test system: TMD8; experiment: Induction of cell cycle arrest in human TMD8 cells assessed as accumulation of cells at G0-G1 phase at 1.0 uM incubated for 24 hrs by PI staining based flow cytometry analysis (reference value: 40.7%); type: functional
[4] = test system: DOHH-2; experiment: Induction of apoptosis in human DOHH-2 cells assessed as early apoptotic cells at 2.5 uM measured after 48 hrs by annexin-V/FITC and PI staining based flow cytometry analysis (reference value: 5.69%); type: functional
[5] = test system: TMD8; experiment: Induction of apoptosis in human TMD8 cells assessed as late apoptotic cells at 1 uM measured after 48 hrs by annexin-V/FITC and PI staining based flow cytometry analysis (reference value: 5.13%); type: functional
[6] = test system: TMD8; experiment: Induction of cell cycle arrest in human TMD8 cells assessed as accumulation of cells at S phase at 0.5 uM incubated for 24 hrs by PI staining based flow cytometry analysis (reference value: 39.0%); type: functional
[7] = Antitumor activity against human TMD8 cells harbouring […] xenografted in mouse model assessed as body weight change at 10 mg/kg, iv administered three times a week in presence of chidamide relative to control; type: functional
[8] = test system: HeLa; experiment: Antiproliferative activity against human HeLa cells assessed as inhibition of cell viability measured after 72 hrs by MTT assay; type: functional, cell-based
[9] = test system: DOHH-2; experiment: Induction of cell cycle arrest in human DOHH-2 cells assessed as accumulation of cells at G0-G1 phase at 0.5 uM incubated for 24 hrs by PI staining based flow cytometry analysis (reference value: 27.1%); type: functional
[10] = AUC (0 to t) in Sprague-Dawley rat at 10 mg/kg, iv measured upto 24 hrs by LC/MS/MS analysis; type: ADME, organism-based; settings: Sprague-Dawley, in vivo
[11] = test system: DOHH-2; experiment: Induction of cell cycle arrest in human DOHH-2 cells assessed as accumulation of cells at S phase at 0.5 uM incubated for 24 hrs by PI staining based flow cytometry analysis (reference value: 40.7%); type: functional
[12] = Volume of distribution at steady state in Sprague-Dawley rat at 10 mg/kg, po measured upto 24 hrs by LC/MS/MS analysis; type: ADME, organism-based; settings: in vivo
[13] = Downregulation of FAS methylation level in human DOHH-2 cells at 100 nM measured after 6 days by PCR analysis relative to control; type: functional; settings: time 6 day
[14] = Volume of distribution at steady state in Sprague-Dawley rat at 10 mg/kg, iv measured upto 24 hrs by LC/MS/MS analysis; type: ADME, organism-based; settings: in vivo, read-out: Vdss
[15] = test system: TMD8; experiment: Induction of cell cycle arrest in human TMD8 cells assessed as accumulation of cells at S phase at 0.25 uM incubated for 24 hrs by PI staining based flow cytometry analysis (reference value: 39.0%); type: functional
[16] = test system: TMD8; experiment: Induction of cell cycle arrest in human TMD8 cells assessed as accumulation of cells at G2/M phase at 0.25 uM incubated for 24 hrs by PI staining based flow cytometry analysis (reference value: 20.4%); type: functional
[17] = biological target: T1, DNA (cytosine-5)-methyltransferase 3B (Homo sapiens, UniProt Q9UBC3); experiment: Inhibition of DNMT3B (unknown origin) preincubated for 15 mins followed by substrate and [3H-SAM] addition and measured after 60 mins by microbeta analysis
[18] = AUC (0 to t) in Sprague-Dawley rat at 10 mg/kg, po measured upto 24 hrs by LC/MS/MS analysis; type: ADME, organism-based; settings: Sprague-Dawley, in vivo
[19] = test system: TMD8; experiment: Induction of apoptosis in human TMD8 cells assessed as late apoptotic cells at 2.51 uM measured after 48 hrs by annexin-V/FITC and PI staining based flow cytometry analysis (reference value: 5.13%); type: functional
[20] = Clearance in Sprague-Dawley rat at 10 mg/kg, iv measured upto 24 hrs by LC/MS/MS analysis; type: ADME, organism-based; settings: in vivo
[21] = test system: U2932; experiment: Antiproliferative activity against human U2932 cells assessed as inhibition of cell viability measured after 72 hrs by MTT assay; type: functional, cell-based; settings: U2932, 72 h
[22] = test system: TMD8; experiment: Induction of cell cycle arrest in human TMD8 cells assessed as accumulation of cells at G2/M phase incubated for 24 hrs by PI staining based flow cytometry analysis; type: functional; settings: dose 0.25-1 µM
[23] = test system: TMD8; experiment: Antitumor activity against human TMD8 cells xenografted in mouse model assessed as tumor inhibition rate at 10 mg/kg, iv administered three times a week relative to control; type: functional; parameters: scale not given: the % may be the effect or the level left
[24] = test system: U-937; experiment: Antiproliferative activity against human U-937 cells assessed as inhibition of cell viability measured after 72 hrs by MTT assay; type: functional, cell-based; settings: U-937, 72 h
[25] = Antitumor activity against human TMD8 cells harbouring TP53 mutant xenografted in mouse model assessed as body weight change at 10 mg/kg, iv administered three times a week relative to control; type: functional
[26] = test system: DOHH-2; experiment: Induction of cell cycle arrest in human DOHH-2 cells assessed as accumulation of cells at G0-G1 phase at 0.25 uM incubated for 24 hrs by PI staining based flow cytometry analysis (reference value: 27.1%); type: functional
[27] = Subacute toxicity in Balb/C mouse assessed as effect on peripheral blood at 10 mg/kg, iv administered three times in a week for 2 weeks; type: organism-based; settings: in vivo, 336 h
[28] = Subacute toxicity in Balb/C mouse assessed as effect on spleen at 30 mg/kg, iv administered three times in a week for 2 weeks; type: organism-based; settings: in vivo, 336 h
[29] = test system: MV4-11; experiment: Antiproliferative activity against human MV4-11 cells assessed as inhibition of cell viability measured after 72 hrs by MTT assay; type: functional, cell-based; settings: MV4-11, 72 h
[30] = biological target: T1, DNA (cytosine-5)-methyltransferase 3B; experiment: Inhibition of DNMT3B (unknown origin) at 5 uM preincubated for 15 mins followed by substrate and [3H-SAM] addition and measured after 60 mins by microbeta analysis relative to control; settings: time 75.0 min
[31] = test system: DOHH-2; experiment: Induction of cell cycle arrest in human DOHH-2 cells assessed as accumulation of cells at G2-M phase at 0.5 uM incubated for 24 hrs by PI staining based flow cytometry analysis (reference value: 27.8%); type: functional
[32] = test system: DOHH-2; experiment: Induction of apoptosis in human DOHH-2 cells assessed as late apoptotic cells at 5 uM measured after 48 hrs by annexin-V/FITC and PI staining based flow cytometry analysis (reference value: 3.66%); type: functional
[33] = test system: A549; experiment: Antiproliferative activity against human A549 cells assessed as inhibition of cell viability measured after 72 hrs by MTT assay; type: functional, cell-based; settings: A549, 72 h
[34] = test system: HT-29; experiment: Antiproliferative activity against human HT-29 cells assessed as inhibition of cell viability measured after 72 hrs by MTT assay; type: functional, cell-based; settings: HT-29, 72 h
[35] = Toxicity in mouse assessed as effect on weight gain at 10 mg/kg, iv administered three times a week; type: organism-based; settings: in vivo
[36] = Antiproliferative activity against human NK-YS cells assessed as inhibition of cell viability measured after 72 hrs by MTT assay; type: functional, cell-based

SMILES: CN1CCC(Nc2nc(-c3ccnc(F)c3)nc3c2ccn3CCCN2CCCC2)CC1
- Activity [1]: 65.7%
- IC50 [2]: 500 nM
- Activity [3]: 32.5%
- Activity [4]: 33.7%
- Activity [5]: 6.88%
- Activity [6]: 32.3%
- Activity [7]: 1.1%
- IC50 [8]: 3.02 µM
- Activity [9]: 39.7%
- AUC(0-t) at 24 h [10]: 1010 ng·h/mL
- Activity [11]: 26.6%
- Vdss [12]: 574.7 L/kg
- Activity [13]: 54.2%
- Vd [14]: 102 L/kg
- Activity [15]: 37.8%
- Activity [16]: 24.4%
- IC50 [17]: > 20 µM
- AUC(0-t) at 24 h [18]: 236 ng·h/mL
- Activity [19]: 10.5%
- clearance [20]: 123 mL/min/kg
- IC50 [21]: 540 nM
- Activity [22]: Dose-dependent-effect
- Activity [23]: 54.61%
- IC50 [24]: 2210 nM
- Activity [25]: -0.9%
- Activity [26]: 28.6%
- Activity [27]: Non-toxic
- Activity [28]: Non-toxic
- IC50 [29]: 950 nM
- inhibition [30]: 1.1%
- Activity [31]: 29.1%
- Activity [32]: 34.7%
- IC50 [33]: 720 nM
- IC50 [34]: 1060 nM
- Activity [35]: Non-toxic
- IC50 [36]: 770 nM
